Common to all, as to format: biochemical
One experiment deals with T1, recombinant human VAP-1 (Homo sapiens, UniProt Q16853).
T1 construct: purchased R&D systems
T1 sequence (Q16853 1-763): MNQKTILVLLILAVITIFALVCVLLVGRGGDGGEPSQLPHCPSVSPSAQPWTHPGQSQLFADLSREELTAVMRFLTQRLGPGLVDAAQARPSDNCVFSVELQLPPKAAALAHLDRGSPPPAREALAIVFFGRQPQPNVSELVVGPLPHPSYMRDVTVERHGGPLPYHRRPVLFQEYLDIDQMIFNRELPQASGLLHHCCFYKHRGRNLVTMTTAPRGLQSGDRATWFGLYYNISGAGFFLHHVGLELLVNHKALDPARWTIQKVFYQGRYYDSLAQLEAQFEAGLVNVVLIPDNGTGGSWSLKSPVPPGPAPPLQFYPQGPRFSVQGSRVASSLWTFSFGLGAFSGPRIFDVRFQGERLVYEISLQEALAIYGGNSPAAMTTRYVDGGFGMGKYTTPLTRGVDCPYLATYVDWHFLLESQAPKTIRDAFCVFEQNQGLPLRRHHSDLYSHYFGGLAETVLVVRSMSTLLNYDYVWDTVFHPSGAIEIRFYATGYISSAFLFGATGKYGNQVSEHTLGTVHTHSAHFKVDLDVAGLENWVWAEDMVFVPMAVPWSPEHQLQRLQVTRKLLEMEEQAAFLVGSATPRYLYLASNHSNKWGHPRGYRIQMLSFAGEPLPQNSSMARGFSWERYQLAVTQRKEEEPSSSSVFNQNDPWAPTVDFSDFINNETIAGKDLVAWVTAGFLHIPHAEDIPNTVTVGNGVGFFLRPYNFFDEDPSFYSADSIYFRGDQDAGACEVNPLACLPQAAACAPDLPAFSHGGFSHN
The experiment is described as follows: Activity on recombinant human VAP-1, Amplex Red HRP-coupled hydrogen peroxide assay, benzylamine substrate. The settings on record: recombinant human VAP-1, benzylamine substrate, 30 min preincubation at 37° C.; read-out: Inhibitory Activity (IC50, nM) human VAP-1. Put shortly:
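H2O2 generation from 1 mM benzylamine was coupled via 1 U/mL HRP to 200 uM Amplex Red; inhibitors, serially diluted 1:3 over 8 points with under 1% final DMSO, had been preincubated 30 min at 37 °C. IC50 from percentage drop in rate.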

For experiment [1], the target named is T2, recombinant human MAO-A (monoamine oxidase-A) (Homo sapiens, UniProt P21397).
T2 construct: purchased Sigma-Aldrich
T2 sequence (P21397 1-527): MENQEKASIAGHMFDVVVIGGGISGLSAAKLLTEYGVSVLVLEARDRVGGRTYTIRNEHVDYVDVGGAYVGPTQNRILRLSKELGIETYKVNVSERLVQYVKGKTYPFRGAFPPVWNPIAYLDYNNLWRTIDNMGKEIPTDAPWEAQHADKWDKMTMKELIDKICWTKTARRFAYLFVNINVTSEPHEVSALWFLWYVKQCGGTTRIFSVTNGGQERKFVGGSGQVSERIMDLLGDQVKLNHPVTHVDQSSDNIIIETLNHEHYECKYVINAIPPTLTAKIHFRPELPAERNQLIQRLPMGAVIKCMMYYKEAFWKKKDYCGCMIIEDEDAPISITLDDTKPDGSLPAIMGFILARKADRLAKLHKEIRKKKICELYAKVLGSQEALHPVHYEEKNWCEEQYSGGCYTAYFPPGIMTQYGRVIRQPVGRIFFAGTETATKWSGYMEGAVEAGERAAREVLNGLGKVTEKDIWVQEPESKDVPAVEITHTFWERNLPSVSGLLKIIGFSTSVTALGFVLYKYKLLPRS
The experiment is described as follows: Activity on recombinant human MAO-A, Amplex Red method, 0.5 mM tyramine substrate. The settings on record: 0.5 mM tyramine, read-out: Inhibitory Activity (IC50, nM) MAO-A. Here is the method:
The compounds according to the present technology were evaluated in terms of activity on recombinant human VAP-1 (R&D systems) by measuring the level of hydrogen peroxide in horseradish peroxidase (HRP)-coupled reaction using Amplex Red Hydrogen Peroxide Assay Kit (Molecular Probes, Invitrogen, USA). The experiment was carried out at room temperature using benzylamine as a substrate. In the HRP-coupled reaction, hydrogen peroxide oxidation of 10-acetyl-3,7-dihydroxyphenoxazine (Amplex Red reagent) produces resorufin, which is a highly fluorescent compound. Briefly, the test compound was dissolved in dimethyl sulfoxide (DMSO) at a concentration of 20 mM. The dose-response assessment was made by 1:3 serial dilution in DMSO, thereby creating an 8 point curve. The concentration of the upper part was controlled according to the efficacy of the compounds, followed by dilution with a reaction buffer solution to obtain a final DMSO concentration less than 1%. To each well of a 96 black well plate, human VAP-1 purified in 50 mM sodium phosphate buffer solution (pH7.4) was added. The test compounds dissolved in DMSO were incubated with the human VAP-1 enzymes at 37° C. for 30 minutes. After 30-minute incubation, each well is added with a reaction mixture containing 200 uM Amplex Red reagent prepared from 50 mM sodium phosphate buffer solution (pH 7.4), 1 mM benzylamine, and 1 U/mL HRP. Fluorescence intensity was measured at several time points during 1-2 hours using a microplate reader (Flexstation3, Molecular Devices) under the wavelength condition exciting at 544 nm and reading the emission at 590 nm. The inhibitory effect of the compounds was measured as a decrease (%) in the signal rate as compared to the control group without any inhibitor (only diluted DMSO). Data was fixed to a logistic model with four variables and IC50 value was calculated using GraphPad Prism program.
In addition, the compounds according to the present technology were evaluated in terms of activity on a recombinant human MAO-A (monoamine oxidase-A, Sigma-Aldrich) and a recombinant human MAO-B (monoamine oxidase-B, Sigma-Aldrich) by using as substrates, 0.5 mM tyramine and 1 mM benzylamine, respectively, with a method similar to the activity evaluation method for recombinant human VAP-1. The compounds according to the present technology were also evaluated in terms of activity on a recombinant human DAO (diamine oxidase, R&D systems) by using as a substrate 1 mM putrescine with a method similar to the activity evaluation method for recombinant human VAP-1.

The target of experiment [2] is T3, recombinant human MAO-B (monoamine oxidase-B) (Homo sapiens, UniProt P27338).
T3 construct: purchased Sigma-Aldrich
T3 sequence (P27338 1-520): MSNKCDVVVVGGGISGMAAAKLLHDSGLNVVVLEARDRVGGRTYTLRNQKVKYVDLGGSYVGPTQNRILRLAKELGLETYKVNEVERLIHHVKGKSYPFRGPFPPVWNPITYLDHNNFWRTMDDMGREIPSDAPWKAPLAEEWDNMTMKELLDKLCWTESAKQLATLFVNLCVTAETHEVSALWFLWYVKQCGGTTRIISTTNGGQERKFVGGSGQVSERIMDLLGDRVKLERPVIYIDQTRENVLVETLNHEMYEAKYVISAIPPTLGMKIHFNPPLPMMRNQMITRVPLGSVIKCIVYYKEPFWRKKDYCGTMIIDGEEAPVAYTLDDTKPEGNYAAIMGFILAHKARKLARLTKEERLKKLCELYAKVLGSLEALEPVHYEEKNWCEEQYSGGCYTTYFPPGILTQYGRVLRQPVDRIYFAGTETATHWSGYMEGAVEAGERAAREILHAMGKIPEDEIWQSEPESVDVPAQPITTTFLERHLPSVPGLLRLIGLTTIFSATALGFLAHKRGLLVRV
The experiment is described as follows: Activity on recombinant human MAO-B, Amplex Red method, 1 mM benzylamine substrate. The settings on record: 1 mM benzylamine, read-out: Inhibitory Activity (IC50, nM) MAO-B. Put shortly: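 First, serially diluted compounds were incubated with recombinant enzyme in 50 mM sodium phosphate, pH 7.4, for 30 min at 37° C. Next, Amplex Red (200 uM), HRP (1 U/mL) and tyramine (0.5 mM, MAO-A) or benzylamine (1 mM, MAO-B) were added. Then fluorescence was monitored over 1-2 h and IC50 fitted.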

For experiment [3], the target named is T4, recombinant human DAO (diamine oxidase) (Homo sapiens, UniProt P19801).
T4 construct: purchased R&D systems
T4 sequence (P19801 20-751): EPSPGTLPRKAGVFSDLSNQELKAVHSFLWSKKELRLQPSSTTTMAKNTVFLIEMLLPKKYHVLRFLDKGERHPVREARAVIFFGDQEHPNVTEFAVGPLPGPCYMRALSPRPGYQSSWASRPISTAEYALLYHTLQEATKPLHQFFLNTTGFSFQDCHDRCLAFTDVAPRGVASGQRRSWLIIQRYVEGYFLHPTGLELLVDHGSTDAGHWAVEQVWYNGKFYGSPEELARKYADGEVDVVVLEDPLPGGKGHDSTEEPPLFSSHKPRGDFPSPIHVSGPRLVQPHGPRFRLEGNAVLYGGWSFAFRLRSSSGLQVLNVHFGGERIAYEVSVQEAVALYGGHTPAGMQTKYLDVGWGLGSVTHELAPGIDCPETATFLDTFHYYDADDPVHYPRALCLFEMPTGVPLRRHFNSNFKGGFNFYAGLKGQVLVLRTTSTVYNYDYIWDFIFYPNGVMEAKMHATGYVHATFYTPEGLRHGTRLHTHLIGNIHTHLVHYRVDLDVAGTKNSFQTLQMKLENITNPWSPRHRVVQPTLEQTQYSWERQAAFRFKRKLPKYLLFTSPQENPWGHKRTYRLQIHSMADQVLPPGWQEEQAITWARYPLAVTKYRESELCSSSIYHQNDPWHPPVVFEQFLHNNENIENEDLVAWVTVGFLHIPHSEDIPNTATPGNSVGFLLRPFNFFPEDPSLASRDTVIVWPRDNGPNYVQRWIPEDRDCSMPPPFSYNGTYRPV
The experiment is described as follows: Activity on recombinant human DAO, Amplex Red method, 1 mM putrescine substrate. The settings on record: recombinant human DAO, 1 mM putrescine; * = between 10 and 100 nM, ** = between 300 and 1000 nM; read-out: Inhibitory Activity (IC50, nM) DAO. In outline:
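Inhibition of recombinant human DAO (diamine oxidase, R&D systems) was assessed with the Amplex Red Hydrogen Peroxide Assay Kit. Hydrogen peroxide produced from 1 mM putrescine was detected through an HRP-coupled reaction that converts Amplex Red into fluorescent resorufin, read at 544 nm excitation and 590 nm emission. IC50 values came from four-parameter logistic fits in GraphPad Prism.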

Structures can show the parent of a compound that is named as a salt.

Consider `NC/C(=C\F)Cn1ncn(-c2c(F)cc(Br)cc2F)c1=O` [Example 22, 2-[(2E)-2-(aminomethyl)-3-fluoroprop-2-en-1-yl]-4-(4-bromo-2,6-difluorophenyl)-2,4-dihydro-3H-1,2,4-triazol-3-one hydrochloride], for which the half-inhibitory concentration (IC50) came out at 1.4 nM on recombinant human VAP-1, 12000 nM in experiment [1], 146 nM in experiment [2] and 420 nM in experiment [3].
For `NC/C(=C\F)Cn1ncn(-c2cc(F)c(Br)cc2F)c1=O` [Example 23, 2-[(2E)-2-(aminomethyl)-3-fluoroprop-2-en-1-yl]-4-(4-bromo-2,5-difluorophenyl)-2,4-dihydro-3H-1,2,4-triazol-3-one hydrochloride], in that order: 2.2 nM, 5200 nM, 142 nM and 32 nM.
For `NC/C(=C/F)Cn1ncn(-c2ccc(Br)nc2)c1=O` [Example 24, 2-[(2Z)-2-(aminomethyl)-3-fluoroprop-2-en-1-yl]-4-(6-bromopyridin-3-yl)-2,4-dihydro-3H-1,2,4-triazol-3-one], in that order: 4.6 nM, 6600 nM, 17 nM and 26 nM.
For `NC/C(=C\F)Cn1ncn(-c2ccc(Br)nc2)c1=O` [Example 25, 2-[(2E)-2-(aminomethyl)-3-fluoroprop-2-en-1-yl]-4-(6-bromopyridin-3-yl)-2,4-dihydro-3H-1,2,4-triazol-3-one hydrochloride], in that order: 2.4 nM, over 100000 nM, 2300 nM and 25 nM.
Consider `Cc1cc(-n2cnn(C/C(=C\F)CN)c2=O)cnc1Br` [Example 26, 2-[(2Z)-2-(aminomethyl)-3-fluoroprop-2-en-1-yl]-4-(6-bromo-5-methylpyridin-3-yl)-2,4-dihydro-3H-1,2,4-triazol-3-one hydrochloride], for which the 50% inhibitory concentration (IC50) at recombinant human VAP-1 was 5.3 nM; in experiment [1], over 100000 nM; in experiment [2], 9.4 nM; in experiment [3] it was 14 nM.
For `Cc1cc(-n2cnn(C/C(=C/F)CN)c2=O)cnc1Br` [Example 27, 2-[(2E)-2-(aminomethyl)-3-fluoroprop-2-en-1-yl]-4-(6-bromo-5-methylpyridin-3-yl)-2,4-dihydro-3H-1,2,4-triazol-3-one hydrochloride], the half-inhibitory concentration (IC50) at recombinant human VAP-1 was 2.5 nM; in experiment [1], over 100000 nM; in experiment [2], 63 nM; in experiment [3], 5.4 nM.
As to `NC/C(=C/F)Cn1ncn(-c2ccc(Br)cn2)c1=O` [Example 29, 2-[(2Z)-2-(aminomethyl)-3-fluoroprop-2-en-1-yl]-4-(5-bromopyridin-2-yl)-2,4-dihydro-3H-1,2,4-triazol-3-one hydrochloride], the half-maximal inhibitory concentration (IC50) on recombinant human VAP-1 amounted to 1.2 nM; in experiment [1], 2600 nM; in experiment [2], 28 nM; in experiment [3], 25 nM.
Taken in the same sequence, the figures for `NC/C(=C\F)Cn1ncn(-c2ccc(Br)cn2)c1=O` [Example 30, 2-[(2E)-2-(aminomethyl)-3-fluoroprop-2-en-1-yl]-4-(5-bromopyridin-2-yl)-2,4-dihydro-3H-1,2,4-triazol-3-one hydrochloride] were 0.61 nM, 1900 nM, 1700 nM and 13 nM.

The values above are taken from patent US11492335B2, “Aryl or heteroaryl triazolone derivatives or salts thereof, or pharmaceutical compositions comprising the same” (YUHAN CORPORATION, priority 2018, dated 2022).
